This is an account of results in US20240100038A1, “USE OF THE AXL INHIBITOR SLC-391 AS ANTIVIRAL THERAPEUTIC AGENT” (SignalChem Lifesciences Corporation, priority 2021, published 2024).

The target of series [1] is T1, MER (Homo sapiens, UniProt Q12866). The experiment in a line: MER kinase inhibition. Type of series: biochemical. The text has this: (§1) The selectivity of SLC-391 was further evaluated against a panel of 320 protein kinases from the human kinome using a radiometric phosphotransferase assay.
T1 sequence (Q12866 21-999): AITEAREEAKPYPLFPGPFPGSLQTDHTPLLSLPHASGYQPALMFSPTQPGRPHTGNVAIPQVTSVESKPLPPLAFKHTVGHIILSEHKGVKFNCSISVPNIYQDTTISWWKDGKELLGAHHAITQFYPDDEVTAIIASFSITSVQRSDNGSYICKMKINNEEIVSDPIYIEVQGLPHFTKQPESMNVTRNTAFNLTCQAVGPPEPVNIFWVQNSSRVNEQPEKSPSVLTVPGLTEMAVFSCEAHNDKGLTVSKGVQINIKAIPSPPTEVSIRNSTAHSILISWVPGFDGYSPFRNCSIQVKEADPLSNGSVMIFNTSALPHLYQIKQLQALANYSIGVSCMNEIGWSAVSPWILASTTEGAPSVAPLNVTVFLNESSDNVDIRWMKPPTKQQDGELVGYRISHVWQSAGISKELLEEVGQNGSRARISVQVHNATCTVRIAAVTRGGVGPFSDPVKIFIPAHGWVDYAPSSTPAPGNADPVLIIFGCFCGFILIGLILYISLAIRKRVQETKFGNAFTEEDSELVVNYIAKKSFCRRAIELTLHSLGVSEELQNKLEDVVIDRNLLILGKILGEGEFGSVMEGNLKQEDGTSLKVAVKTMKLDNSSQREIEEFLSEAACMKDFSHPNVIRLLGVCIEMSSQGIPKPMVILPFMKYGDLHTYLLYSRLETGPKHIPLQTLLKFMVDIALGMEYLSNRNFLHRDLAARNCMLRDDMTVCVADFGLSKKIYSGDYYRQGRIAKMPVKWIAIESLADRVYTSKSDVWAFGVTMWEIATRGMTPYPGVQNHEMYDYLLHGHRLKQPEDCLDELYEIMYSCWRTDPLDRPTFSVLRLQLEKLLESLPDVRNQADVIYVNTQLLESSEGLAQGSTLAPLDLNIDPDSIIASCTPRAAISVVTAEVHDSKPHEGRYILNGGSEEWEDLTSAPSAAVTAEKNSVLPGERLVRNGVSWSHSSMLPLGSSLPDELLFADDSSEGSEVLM
In series [2] the test system is SARS-CoV-2 spike protein binding to ACE2. The class given is cell-based, SARS-CoV-2 / human. The note with it: 1 μM, CHO-hACE2 cells, luciferase.
The conditions of series [3]: in vivo, po.
In a further series the target is TYRO3 (Homo sapiens, UniProt Q06418). The experiment in a line: TYRO3 kinase inhibition. The class given is biochemical.
Sequence of TYRO3 (Q06418 41-890): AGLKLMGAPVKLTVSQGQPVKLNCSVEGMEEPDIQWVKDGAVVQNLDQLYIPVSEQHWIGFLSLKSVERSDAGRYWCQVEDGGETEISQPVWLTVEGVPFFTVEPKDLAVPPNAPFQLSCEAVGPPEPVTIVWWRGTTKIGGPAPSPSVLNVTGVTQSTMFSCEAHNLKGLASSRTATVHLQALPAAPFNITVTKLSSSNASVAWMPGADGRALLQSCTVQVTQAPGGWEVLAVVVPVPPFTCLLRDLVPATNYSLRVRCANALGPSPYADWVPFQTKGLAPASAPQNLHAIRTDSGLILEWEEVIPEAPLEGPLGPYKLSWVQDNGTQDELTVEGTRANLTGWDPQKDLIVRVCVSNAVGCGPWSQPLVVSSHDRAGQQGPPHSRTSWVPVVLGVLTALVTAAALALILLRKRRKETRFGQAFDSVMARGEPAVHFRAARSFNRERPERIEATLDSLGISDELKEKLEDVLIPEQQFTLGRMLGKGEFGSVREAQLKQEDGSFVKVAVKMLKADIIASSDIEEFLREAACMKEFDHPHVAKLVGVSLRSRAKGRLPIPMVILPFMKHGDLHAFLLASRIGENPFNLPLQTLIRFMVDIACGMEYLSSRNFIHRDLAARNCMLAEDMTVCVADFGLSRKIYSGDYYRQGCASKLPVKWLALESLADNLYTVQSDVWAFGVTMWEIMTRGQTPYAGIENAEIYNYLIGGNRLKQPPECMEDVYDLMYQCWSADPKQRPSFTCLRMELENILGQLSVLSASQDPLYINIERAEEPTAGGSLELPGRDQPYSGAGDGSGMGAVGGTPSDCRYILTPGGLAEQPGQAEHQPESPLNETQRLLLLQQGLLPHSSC
From the text: as §1

The next series deals with NUAK1 (Homo sapiens, UniProt O60285). The experiment in a line: Radiometric phosphotransferase assay, panel of 320 protein kinases. The class given is biochemical.
From the text: as §1

In another series the target is c-MET (Homo sapiens, UniProt P08581). Described as above. Type of series: biochemical.
From the text: as §1

The next series concerns the target Aurora C (Homo sapiens, UniProt Q9UQB9). Described as above. Type of series: biochemical.
From the text: as §1

Another series deals with RET (Homo sapiens, UniProt P07949). Described as above. The class given is biochemical.
From the text: as §1

The target in a further series is ROS1 (Homo sapiens, UniProt P08922). The series is described as above. The class given is biochemical.
From the text: as §1

Another series has as its target ALK1 (Homo sapiens, UniProt P37023). The series is described as above. The class given is biochemical.
From the text: as §1

In another series the target is EPHA6 (Homo sapiens, UniProt Q9UF33). Described as above. Type of series: biochemical.
Sequence of EPHA6 (Q9UF33 23-1036): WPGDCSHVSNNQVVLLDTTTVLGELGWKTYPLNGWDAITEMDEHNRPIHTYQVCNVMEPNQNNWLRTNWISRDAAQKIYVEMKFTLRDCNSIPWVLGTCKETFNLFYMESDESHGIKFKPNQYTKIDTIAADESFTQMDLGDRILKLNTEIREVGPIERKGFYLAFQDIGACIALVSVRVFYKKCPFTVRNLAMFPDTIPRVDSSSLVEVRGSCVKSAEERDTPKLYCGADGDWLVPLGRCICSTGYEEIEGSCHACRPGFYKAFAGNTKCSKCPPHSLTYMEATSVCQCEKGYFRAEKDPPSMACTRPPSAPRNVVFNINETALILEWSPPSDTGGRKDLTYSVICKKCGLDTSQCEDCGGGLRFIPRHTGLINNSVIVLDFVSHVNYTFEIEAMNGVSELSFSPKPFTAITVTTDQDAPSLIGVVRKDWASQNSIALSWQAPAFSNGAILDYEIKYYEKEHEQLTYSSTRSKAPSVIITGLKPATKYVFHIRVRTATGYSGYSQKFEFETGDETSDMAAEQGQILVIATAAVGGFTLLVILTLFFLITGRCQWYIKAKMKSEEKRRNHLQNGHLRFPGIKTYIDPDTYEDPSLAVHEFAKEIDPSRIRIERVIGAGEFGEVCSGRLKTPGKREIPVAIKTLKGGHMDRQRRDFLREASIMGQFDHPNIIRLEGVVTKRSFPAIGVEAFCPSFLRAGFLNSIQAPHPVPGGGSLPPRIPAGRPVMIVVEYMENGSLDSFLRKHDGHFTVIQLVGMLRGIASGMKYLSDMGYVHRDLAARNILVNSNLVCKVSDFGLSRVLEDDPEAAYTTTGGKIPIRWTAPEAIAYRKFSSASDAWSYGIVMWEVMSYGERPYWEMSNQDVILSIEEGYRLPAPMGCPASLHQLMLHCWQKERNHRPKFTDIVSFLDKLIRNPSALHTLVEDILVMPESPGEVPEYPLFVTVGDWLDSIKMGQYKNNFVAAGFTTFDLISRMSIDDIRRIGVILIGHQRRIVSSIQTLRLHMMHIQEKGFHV
From the text: as §1

In the next series the test system is influenza virus (Flu A). The class given is cell-based. The conditions noted are these: for Fold of virus reduction: compared with virus control.
The target in series [4] is T1, MER. The experiment in a line: In vitro BaF3 cell assay, panel of 93 receptor tyrosine kinases. On the set-up: expressed in transfected cells; host or cells: BaF3. The note with it: at 100 nM. The class given is cell-based.
For series [5], the target named is T2, AXL (Homo sapiens, UniProt P30530). The description is as above. Type of series: cell-based. On the set-up: expressed in transfected cells; host or cells: BaF3. The conditions noted are these: at 100 nM.
T2 sequence (P30530 26-894): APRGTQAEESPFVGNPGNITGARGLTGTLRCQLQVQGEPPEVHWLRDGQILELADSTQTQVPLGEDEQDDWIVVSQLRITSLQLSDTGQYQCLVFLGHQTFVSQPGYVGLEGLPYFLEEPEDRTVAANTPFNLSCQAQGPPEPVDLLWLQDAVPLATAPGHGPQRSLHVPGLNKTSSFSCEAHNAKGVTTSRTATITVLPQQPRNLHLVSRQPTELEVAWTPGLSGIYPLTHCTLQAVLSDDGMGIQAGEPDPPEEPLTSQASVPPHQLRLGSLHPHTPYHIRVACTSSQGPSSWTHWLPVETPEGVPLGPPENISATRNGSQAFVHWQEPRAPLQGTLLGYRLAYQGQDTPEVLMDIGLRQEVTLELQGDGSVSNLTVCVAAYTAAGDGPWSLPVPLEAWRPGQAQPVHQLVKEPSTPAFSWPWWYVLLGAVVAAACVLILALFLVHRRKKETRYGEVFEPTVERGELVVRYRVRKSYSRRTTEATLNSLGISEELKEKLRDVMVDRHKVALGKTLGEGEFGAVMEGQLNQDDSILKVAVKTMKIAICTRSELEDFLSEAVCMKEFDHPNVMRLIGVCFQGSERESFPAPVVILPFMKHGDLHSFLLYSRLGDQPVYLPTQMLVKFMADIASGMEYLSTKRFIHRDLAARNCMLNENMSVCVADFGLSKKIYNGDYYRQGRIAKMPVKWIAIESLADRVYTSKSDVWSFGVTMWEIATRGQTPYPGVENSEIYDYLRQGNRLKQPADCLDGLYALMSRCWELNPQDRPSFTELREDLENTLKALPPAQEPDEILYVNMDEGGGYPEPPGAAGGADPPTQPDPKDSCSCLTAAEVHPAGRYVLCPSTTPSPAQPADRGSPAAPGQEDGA
Series [6] can be described thus: Phase I study in subjects with solid tumors (SLC-391-101). The note with it: clinical drug product, oral.
A short description of series [7]: In vivo rat micronucleus assay. The note with it: 70 mg/kg/day (highest dose).
A further series relates to phosphorylated Akt. The series is described as follows: Phosphorylated Akt in tumor xenograft samples. Type of series: in vivo. The conditions noted are these: oral administration. The text has this: (§2) Significant in vivo pharmacology studies for SLC-391 have been completed in support of its oncology indication. The bioavailability of SLC-391 in vivo when administered orally (PO) (twice-daily [BID] and once-daily [QD]) were studied.

The subject of a further series is A549. The experiment in a line: Cell migration. The class given is cell-based, human. The conditions noted are these: at 1 μM.
For series [8], the system named is human influenza virus (FluAPR834). The experiment in a line: microbe, parasite or virus in culture. The conditions noted are these: unidentified influenza virus, RPMI-2650, in Homo sapiens, 96 h, read-out: EC50 (inhibit CPE by 50%).
Series [9] in a line: 28-day oral gavage GLP toxicology study in Sprague-Dawley rats.
A short description of a further series: in vivo. The note with it: both, Sprague-Dawley, rat.
Series [10] concerns Salmonella tester strain TA100. The experiment in a line: Ames screening test, TA100. The note with it: TA100, with and without liver S9 metabolic activation. Type of series: cell-based. The text has this: (§3) In genotoxicity screening studies, SLC-391 was negative in Salmonella tester strains TA98 and TA100 (Ames screening test) with and without liver S9 metabolic activation.

The test system of a further series is tumor growth. The series is described as follows: In vivo tumor growth inhibition, oral administration.
From the text: as §2

For a further series, the target named is hERG (Homo sapiens, UniProt Q12809). The experiment in a line: Standard hERG assay. The class given is biochemical. Background: The hERG channel carries a current that helps repolarise heart muscle cells.
In series [11] the test system is human influenza virus (FluAPR834). The note with it: Flu A, RPMI2650 cells.
Series [12] concerns Gas6-induced phosphorylation of Akt. The series is described as follows: Inhibition of Gas6-induced phosphorylation of Akt in A549. The class given is cell-based. The note with it: human NSCLC cell line A549.
For another series, the target named is T3, FGFR3 (Homo sapiens, UniProt P22607).
T3 construct: expressed in transfected cells; host or cells: BaF3
T3 sequence (P22607 23-806, species assumed): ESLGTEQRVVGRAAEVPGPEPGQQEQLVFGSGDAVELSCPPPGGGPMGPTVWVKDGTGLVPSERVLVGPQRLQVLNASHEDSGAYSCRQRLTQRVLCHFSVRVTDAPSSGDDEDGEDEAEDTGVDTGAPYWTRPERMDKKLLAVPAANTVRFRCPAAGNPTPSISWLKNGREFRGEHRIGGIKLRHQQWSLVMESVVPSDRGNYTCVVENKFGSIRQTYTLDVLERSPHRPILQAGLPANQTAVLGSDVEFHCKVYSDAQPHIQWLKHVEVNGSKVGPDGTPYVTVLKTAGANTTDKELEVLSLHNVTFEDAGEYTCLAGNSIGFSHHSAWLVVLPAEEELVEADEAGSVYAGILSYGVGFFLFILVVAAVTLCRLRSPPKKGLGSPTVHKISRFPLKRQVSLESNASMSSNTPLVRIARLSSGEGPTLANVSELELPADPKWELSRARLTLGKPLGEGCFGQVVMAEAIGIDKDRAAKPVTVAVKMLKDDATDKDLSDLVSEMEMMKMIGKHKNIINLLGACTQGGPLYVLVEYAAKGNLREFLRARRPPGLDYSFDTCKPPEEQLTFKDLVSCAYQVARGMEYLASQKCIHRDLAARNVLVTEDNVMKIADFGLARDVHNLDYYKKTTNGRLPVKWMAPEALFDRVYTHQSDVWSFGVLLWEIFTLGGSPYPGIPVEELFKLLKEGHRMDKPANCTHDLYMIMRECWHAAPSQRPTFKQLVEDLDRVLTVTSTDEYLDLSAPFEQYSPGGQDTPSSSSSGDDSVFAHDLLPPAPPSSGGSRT
The series is described as follows: In vitro BaF3 cell assay, panel of 93 receptor tyrosine kinases. The class given is cell-based. The note with it: at 100 nM.

The target in another series is T4, VEGFR1 (Homo sapiens, UniProt P17948).
T4 construct: expressed in transfected cells; host or cells: BaF3
The series is described as above. Type of series: cell-based. The note with it: at 100 nM.

Series [13] deals with Salmonella tester strain TA98. The series is described as follows: Ames screening test, TA98. The class given is cell-based. The conditions noted are these: TA98, with and without liver S9 metabolic activation.
From the text: as §3

In a further series the test system is 4T1. The experiment in a line: Cellular proliferation, 4T1. Type of series: cell-based. The note with it: Mus musculus.
Another series deals with A549 cell invasion. The series is described as follows: Cell invasion. Type of series: cell-based. The conditions noted are these: Homo sapiens.
The test system of another series is K562. The series is described as follows: Cellular proliferation, K562. The class given is cell-based. The conditions noted are these: Homo sapiens.
Series [14] can be described thus: 28-day oral gavage GLP toxicology study in Beagle dogs.
Series [15] in a line: in vitro. The note with it: human.
Series [16] can be described thus: Flowscreen genotoxicity assay. The class given is cell-based.
Series [17] has as its target T2, AXL. The experiment in a line: AXL kinase inhibition. The class given is biochemical.
From the text: as §1

A further series deals with A549 cells. The experiment in a line: Anchorage-independent cell proliferation. Type of series: cell-based, human. The note with it: at 1 μM in A549 cells.
Series [18] concerns SARS-CoV-2. The class given is cell-based. The note with it: Vero E6 cells.
Series [19] in a line: in vitro. The conditions noted are these: human. This is another data set of the same source.
A further series concerns Ebola virus. The note with it: animal models (Dowall 2016); cited from earlier work.
Series [20] concerns SARS-CoV-2. The conditions noted are these: cited from earlier work.
Another series has as its system ZEB1. The conditions noted are these: Stewart 2020; cited from earlier work.
In series [21] the test system is virus infection of wild type bone marrow-derived dendritic cells. The note with it: wild type bone marrow-derived dendritic cells (Bhattacharyya 2013); cited from earlier work.
Series [22] concerns AXL. The conditions noted are these: cultured cell assays; cited from earlier work.
Series [23] concerns MER. The note with it: cultured cell assays; cited from earlier work.
The mark [24] stands for this setting: 28-day oral gavage, Beagle dogs.

Each structure is given as a SMILES string. Read-outs that look alike come from different tables or passages of the source. Bounds are passed on as bounds.

Sequence of ALK1 (P37023 142-503 limits assumed): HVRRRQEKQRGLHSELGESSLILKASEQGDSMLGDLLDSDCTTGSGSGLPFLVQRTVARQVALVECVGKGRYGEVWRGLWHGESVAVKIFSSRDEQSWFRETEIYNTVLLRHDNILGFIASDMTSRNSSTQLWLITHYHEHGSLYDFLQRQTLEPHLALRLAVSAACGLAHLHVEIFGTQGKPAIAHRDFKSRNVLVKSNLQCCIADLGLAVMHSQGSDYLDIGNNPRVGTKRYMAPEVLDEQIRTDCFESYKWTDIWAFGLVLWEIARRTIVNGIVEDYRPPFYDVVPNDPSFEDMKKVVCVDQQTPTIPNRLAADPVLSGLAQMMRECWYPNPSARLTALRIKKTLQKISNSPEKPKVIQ

Broadly, the IC50 is the concentration needed to halve the response being measured. A word on the inhibition: it is the relative decrease from the control value, in per cent. As a reminder, the EC50 is the concentration needed to bring the measured effect to its halfway point. As a reminder, the NOAEL is the highest tested level that showed no adverse finding. Broadly, the viability is the share of living cells, or the viability signal relative to a control. A higher viability goes with less harm to the cells. Take `Nc1ncc(-c2cnn(C3CCNCC3)c2)cc1-c1nnc(CC2CC2)o1` [SLC-391, 3-(5-(cyclopropylmethyl)-1,3,4-oxadiazol-2-yl)-5-(1-(piperidin-4-yl)-1H-pyrazol-4-yl)pyridin-2-amine]: the 50% inhibitory concentration (IC50) against MER [1] was determined as 63.5 nM; against TYRO3 it was 42.3 nM; against NUAK1, 62 nM; at c-MET, 12 nM; against Aurora C, 51 nM; against RET it was 28 nM. Further, the IC50 was 23 nM against ROS1; 31 nM against ALK1; 45 nM against EPHA6; over 30000 nM at hERG; 290 nM in series [12]; 1050 nM with 4T1. Moreover, the values for the IC50 with K562 and on AXL [17] were 3450 nM and 9.6 nM, respectively. Moreover, the “neutralization of SARS-CoV-2 pseudovirus” value in series [2] was “completely neutralize”. In series [3], the “exposure in human subjects” value is “excellent exposure”. For the same compound, the TCID50/mL with influenza virus (Flu A) (0.003 uM) was found to be 19999 TCID50/mL; in the series on influenza virus (Flu A) (0.4 uM), 9290 TCID50/mL; in the series with influenza virus (Flu A) (10 uM), 731 TCID50/mL. Moreover, the “Fold of virus reduction” value in the series on influenza virus (Flu A) (0.003 uM) worked out at 34.8 fold; in the series on influenza virus (Flu A) (0.4 uM), 74.9 fold; in the series on influenza virus (Flu A) (10 uM), 952.9 fold. In addition, the inhibition at 0.1 µM worked out at 61% against MER [4], 69% against AXL [5], 64% on FGFR3 and 64% against VEGFR1. The “tolerability in human subjects” value in series [6] is “well tolerated”. For the same compound, in series [7], the “genotoxic response, rat micronucleus assay” value was “potential genotoxic response was observed”. In addition, in the series on phosphorylated Akt, the “reduction in levels of phosphorylated Akt” value was determined as 41%. For the same compound, in the series on A549, the “reduction of cell migration” value is reported as “less than 40%”. Besides, the concentration for a half-maximal effect (EC50) in series [8] is 140 nM. The severe toxic dose in series [9] (28-day rat GLP study, highest dose tested) is given as 70 mg/kg/day. The “human equivalent dose (HED) of rat severe toxic dose” value in series [9] (from 70 mg/kg/day in rat) is on record as 11.3 mg/kg. This compound yielded an NOAEL at 28 day in the series “in vivo” of 30 mg/kg/day. The “Ames screening test result” value in [10] and in [13] was “negative” throughout. In addition, the “tumor growth inhibition (TGI)” value with tumor growth (50 mg/kg BID) stood at 60%; in the series on tumor growth (75 mg/kg BID), 67%. Besides, the “therapeutic index (TI), TC50 divided by EC50” value in series [11] is “above 71.4”. For the same compound, the inhibition at 0.2 µM in the series on A549 cell invasion is about 75%. For the same compound, in series [14] (28-day dog GLP toxicology study, as defined in ICH S9), the HNSTD was 6 mg/kg/day. For the same compound, in series [14] (setting [24]), the “effects on heart rate (HR)” value is given as “no effects”. Besides, the “effects on respiratory parameters” value in [14] (setting [24]) was “no SLC-391-related effects”. For the same compound, the “effects on morphology of P-QRS-T complexes, PR interval, QT, QTc intervals, QRS complex duration” value in series [14] (28-day oral gavage, Beagle dogs, males and females) is given as “no observable effects”. For the same compound, in [14] (from 6 mg/kg/day in dog), the “human equivalent dose (HED) of dog HNSTD” value turned out to be 3.3 mg/kg. Moreover, the CC50 in “in vitro [15]” was over 10000 nM. The Flowscreen assay classification entry in series [16] is on record as “potentially genotoxic with an aneugenic mechanism of action”. The “impairment of anchorage-independent cell proliferation” value in the series on A549 cells is recorded as “complete inhibition”. Besides, the “inhibition of SARS-CoV-2 infection (qPCR cycles)” value is listed as “effectively inhibit the viral infection” with SARS-CoV-2 [18] (0.01 μM, for 24 hours) and “high degree of viral inhibition” in the series with SARS-CoV-2 [18] (1 μM, up to 72 hours). In “in vitro [19]”, this compound displayed a viability at 0.003 µM of 100%. For the same compound, the viability at 0.4 µM in the series “in vitro [19]” turned out to be 95%. In “in vitro [19]”, this compound came in with a viability at 10 µM of 80%.
With `Nc1nc(Nc2ccc3c(c2)CC[C@@H](N2CCCC2)CC3)nn1-c1cc2c(nn1)-c1ccccc1CCC2` [BGB324], the “effect against lethal Ebola virus infection” value in the series with Ebola virus is “had effect against lethal Ebola virus infection”. Further, in the series with SARS-CoV-2 [20] (preliminary in vitro studies), the “protection from SARS-CoV-2-induced cytopathic effect” value is recorded as “protect cells from SARS-CoV-2-induced cytopathic effect”. Moreover, the “inhibition of SARS-CoV-2 infection of cells” value in the series on SARS-CoV-2 [20] (subsequent studies) is “potently inhibit SARS-CoV-2 infection of cells”. Moreover, the “effect on ZEB1” value with ZEB1 is “downregulates ZEB1”.
Turning to `CCOc1ccn(-c2ccc(F)cc2)c(=O)c1C(=O)Nc1ccc(Oc2ccnc(N)c2Cl)c(F)c1` [BMS-777607], the “susceptibility of treated dendritic cells to virus infection” value in series [21] is “much less susceptible to virus infection than untreated cells”. Moreover, the “concentrations effectively blocking Gas6-triggered receptor activation” value in the series with AXL [22] and in the series with MER [23] was 30 to 3600 nM throughout.
